Assay results: ChEMBL document CHEMBL4346695, “Thiophenol-formaldehyde triazole causes apoptosis induction in ovary cancer cells and prevents tumor growth formation in mice model” (2019)
Activity calls are given as the source filed them.

Legend:
[1] = system: Caov-3 cell line; experiment: Growth inhibition of human Caov3 cells incubated for 48 hrs by MTT assay; assay type: functional, cell-based
[2] = organism: Homo sapiens; experiment: Growth inhibition of human ES2 cells incubated for 48 hrs by MTT assay; assay type: functional
[3] = system: Caov-4; experiment: Growth inhibition of human Caov4 cells incubated for 48 hrs by MTT assay; assay type: functional, cell-based

Measured: growth inhibition (GI)

Fc1ccc(-n2cc(COCc3ccccc3S)nn2)c(F)c1
active: all assays above

FC(F)(F)c1ccc(-n2cc(COCc3ccccc3S)nn2)cc1
active: all assays above
